Test results taken from US10251843B2, “Crosslinked nanoparticle composition” (priority 2015, dated 2019).

Columns and labels:
[1] = In vivo pharmacokinetics, serum amoxicillin after oral gavage; conditions: ICR mice
Method: The experiments were performed on male and female ICR mice (6-8 weeks) to evaluate the amoxicillin concentration in serum. […] Each testing group contained 10 mice (five male and five female). The concentration of amoxicillin in each collected serum sample was determined by HPLC.

[2] = mice, reported; cited from earlier work

CC1(C)S[C@@H]2[C@H](NC(=O)[C@H](N)c3ccc(O)cc3)C(=O)N2[C@H]1C(=O)O.O.O.O [free amoxicillin, (2S,5R,6R)-6-[(R)-(−)-2-amino-2-(p-hydroxyphenyl)acetamido]-3,3-dimethyl-7-oxo-4-thia-1-azabicyclo[3.2.0]heptane-2-carboxylic acid trihydrate]
time at which serum concentration of amoxicillin peaked ([1]; 2 mg amoxicillin): 15 min | serum concentration as % of the peak value ([1]; after 1 hour): below 50% | serum concentration as % of the peak value ([1]; after 2 hours): below 20% | area under the curve (total measured amount of drug in the circulation) ([1]; compared with the nanoparticle formulation): smaller area | plasma half-life of amoxicillin [2]: about 40 minutes
